Our source for the EC50, hTGR5 % trans and mTGR5 % trans values is patent publication US9932309B2, “2-oxo-3,4-dihydropyridine-5-carboxylates and their use” (UNIVERSITE DE LILLE 2 DROIT ET SANTE, priority 2014, dated 2018).

The EC50 is the concentration at which the effect is half-maximal. High values mean a less potent agent, low ones a more potent agent.

Assay [1] deals with T1, hTGR5 (Homo sapiens, UniProt Q8TDU6).
T1 construct: expressed in transfected cells; host or cells: HEK293 cells, transiently co-transfected with the pCRE TA-Luciferase reporter
T1 sequence (Q8TDU6 1-330): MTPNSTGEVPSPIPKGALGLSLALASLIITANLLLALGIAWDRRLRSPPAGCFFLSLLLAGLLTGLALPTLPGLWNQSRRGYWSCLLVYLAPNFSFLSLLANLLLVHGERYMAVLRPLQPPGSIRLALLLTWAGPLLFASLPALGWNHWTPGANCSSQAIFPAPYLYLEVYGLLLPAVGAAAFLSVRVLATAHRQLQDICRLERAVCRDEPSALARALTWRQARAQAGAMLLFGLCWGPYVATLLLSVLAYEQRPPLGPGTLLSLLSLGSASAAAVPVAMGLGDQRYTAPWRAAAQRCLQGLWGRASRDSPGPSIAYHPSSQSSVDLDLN
As to the kind of experiment: TGR5/CRE Luciferase Assay (hTGR5). The assay is classed as cell-based. Particulars: for EC50: HEK 293 cells co-transfected with pCMV tag4b-TGR5h and pCRE TA-Luciferase, overnight incubation; for hTGR5 % trans: percentage of the 10 μM LCA value, HEK 293 cells transfected with hTGR5. The method, boiled down: (§1)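 Transiently co-transfected HEK293 cells expressing human or mouse TGR5 plus a CRE-luciferase reporter were incubated overnight with rising compound concentrations in duplicate. Luminescence reported cAMP-driven expression; 10 μM lithocholic acid served as positive reference. Curves fitted to a 4-parameter logistic.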

In assay [2] the target is T2, mTGR5 (Mus musculus, UniProt Q80SS6).
T2 construct: expressed in transfected cells; host or cells: HEK293 cells, transiently co-transfected with the pCRE TA-Luciferase reporter
T2 sequence (Q80SS6 1-329): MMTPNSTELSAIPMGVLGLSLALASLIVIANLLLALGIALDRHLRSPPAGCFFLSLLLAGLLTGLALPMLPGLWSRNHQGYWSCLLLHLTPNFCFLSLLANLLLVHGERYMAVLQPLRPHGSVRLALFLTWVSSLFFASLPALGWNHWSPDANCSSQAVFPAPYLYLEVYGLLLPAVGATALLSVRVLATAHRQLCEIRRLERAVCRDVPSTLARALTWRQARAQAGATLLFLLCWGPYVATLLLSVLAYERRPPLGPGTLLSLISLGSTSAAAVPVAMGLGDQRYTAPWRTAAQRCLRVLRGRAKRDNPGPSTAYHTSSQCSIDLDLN
The assay can be described thus: TGR5/CRE Luciferase Assay (mTGR5). The assay is classed as cell-based. Particulars: for EC50: HEK 293 cells co-transfected with pCMV AC6-TGR5m and pCRE TA-Luciferase, overnight incubation; for mTGR5 % trans: percentage of the 10 μM LCA value, HEK 293 cells transfected with mTGR5. The method, boiled down:
as §1

As for `COCCN1C(=O)CC(c2ccc(Cl)cc2)C(C(=O)OCc2ccccc2C)=C1C` (centres unmarked) [Example 98, o-tolylmethyl 4-(4-chlorophenyl)-1-(2-methoxyethyl)-6-methyl-2-oxo-3,4-dihydropyridine-5-carboxylate], the half-maximal effective concentration (EC50) in assay [1] was determined as 300 nM; in assay [2], 500 nM.
Turning to `COCCN1C(=O)CC(c2ccc(Cl)cc2)C(C(=O)OCc2ccc(C)cc2)=C1C` (centres unmarked) [Example 100, p-tolylmethyl 4-(4-chlorophenyl)-1-(2-methoxyethyl)-6-methyl-2-oxo-3,4-dihydropyridine-5-carboxylate], in assay [1], the response was half-maximal at 600 nM (EC50) and the hTGR5 % trans was found to be 72%. Also, in assay [2], the midpoint of the response, the EC50, lay at 400 nM and the mTGR5 % trans was found to be 89%.
On to `COCCN1C(=O)CC(c2ccc(Cl)cc2)C(C(=O)OCc2c(C)cc(C)cc2C)=C1C` (centres unmarked) [Example 101, (2,4,6-trimethylphenyl)methyl 4-(4-chlorophenyl)-1-(2-methoxyethyl)-6-methyl-2-oxo-3,4-dihydropyridine-5-carboxylate], for which, in assay [1], the EC50 stood at 200 nM and the hTGR5 % trans was determined as 75%. In assay [2], the EC50 came out at 200 nM and the mTGR5 % trans is 84%.
In assay [1], `COCCN1C(=O)CC(c2ccc(Cl)cc2)C(C(=O)OCc2cccc(OC)c2)=C1C` (centres unmarked) [Example 103, (3-methoxyphenyl)methyl 4-(4-chlorophenyl)-1-(2-methoxyethyl)-6-methyl-2-oxo-3,4-dihydropyridine-5-carboxylate] showed an EC50 of 500 nM and a hTGR5 % trans of 85%. In assay [2], the midpoint of the response, the EC50, lay at 400 nM and the mTGR5 % trans turned out to be 95%.
The corresponding values for `COCCN1C(=O)CC(c2ccc(Cl)cc2)C(C(=O)OCc2ccc(OC)cc2)=C1C` (centres unmarked) [Example 104, (4-methoxyphenyl)methyl 4-(4-chlorophenyl)-1-(2-methoxyethyl)-6-methyl-2-oxo-3,4-dihydropyridine-5-carboxylate] are 200 nM, 71%, 200 nM and 85%.
As to `COCCN1C(=O)CC(c2ccc(Cl)cc2)C(C(=O)OCc2ccc3ccccc3c2)=C1C` (centres unmarked) [Example 106, 2-naphthylmethyl 4-(4-chlorophenyl)-1-(2-methoxyethyl)-6-methyl-2-oxo-3,4-dihydropyridine-5-carboxylate], the concentration giving a half-maximal response (EC50) in assay [1] came to 400 nM; in assay [2] it was 200 nM.
As to `COCCN1C(=O)CC(c2ccc(Cl)cc2)C(C(=O)OCc2ccncc2)=C1C` (centres unmarked) [Example 107, 4-pyridylmethyl 4-(4-chlorophenyl)-1-(2-methoxyethyl)-6-methyl-2-oxo-3,4-dihydropyridine-5-carboxylate], in assay [1], it took 1200 nM to reach a half-maximal effect (EC50) and the hTGR5 % trans is 71%. In assay [2], this molecule gave an EC50 of 600 nM and a mTGR5 % trans of 83%.
`COCCN1C(=O)CC(c2ccc(Cl)cc2)C(C(=O)OCc2ccc(-c3ccccc3)cc2)=C1C` (centres unmarked) [Example 108, (4-phenylphenyl)methyl 4-(4-chlorophenyl)-1-(2-methoxyethyl)-6-methyl-2-oxo-3,4-dihydropyridine-5-carboxylate]: the EC50 in assay [1] was found to be 500 nM; in assay [2] it was 600 nM.
Turning to `COCCN1C(=O)CC(c2ccc(Cl)cc2)C(C(=O)OCCc2ccccc2)=C1C` (centres unmarked) [Example 110, 2-phenylethyl 4-(4-chlorophenyl)-1-(2-methoxyethyl)-6-methyl-2-oxo-3,4-dihydropyridine-5-carboxylate], in assay [1], a half-maximal effect (EC50) was put at 2300 nM and the hTGR5 % trans turned out to be 50%. For the same molecule, in assay [2], the midpoint of the response, the EC50, lay at 1600 nM and the mTGR5 % trans turned out to be 42%.
In assay [1], `COCCN1C(=O)CC(c2ccc(Cl)cc2)C(C(=O)OCC(=O)c2ccccc2)=C1C` (centres unmarked) [Example 112, Phenacyl 4-(4-chlorophenyl)-1-(2-methoxyethyl)-6-methyl-2-oxo-3,4-dihydropyridine-5-carboxylate] yielded a 50% effective concentration (EC50) of 5200 nM and a hTGR5 % trans of 20%. Also, in assay [2], the half-maximal effective concentration (EC50) was determined as 3200 nM and the mTGR5 % trans is 46%.
The corresponding values for `COCCN1C(=O)CC(c2ccc(Cl)cc2)C(C(=O)OCc2ccc(OCCCN(C)C)cc2)=C1C` (centres unmarked) [Example 116, [4-[3-(dimethylamino)propoxy]phenyl]methyl 4-(4-chlorophenyl)-1-(2-methoxyethyl)-6-methyl-2-oxo-3,4-dihydropyridine-5-carboxylate] are 1400 nM, 76%, 1600 nM and 82%.
The corresponding values for `COCCN1C(=O)CC(c2ccc(Cl)cc2)C(C(=O)OCc2ccc(OCCC[N+](C)(C)C)cc2)=C1C.[I-]` (centres unmarked) [Example 117, 3-[4-[[4-(4-chlorophenyl)-1-(2-methoxyethyl)-6-methyl-2-oxo-3,4-dihydropyridine-5-carbonyl]oxymethyl]phenoxy]propyl-trimethyl-ammonium; iodide] are 1600 nM, 74%, 4200 nM and 77%.
For `COCCOc1ccc(COC(=O)C2=C(C)N(CCOC)C(=O)CC2c2ccc(Cl)cc2)cc1` (centres unmarked) [Example 119, [4-(2-methoxyethoxy)phenyl]methyl 4-(4-chlorophenyl)-1-(2-methoxyethyl)-6-methyl-2-oxo-3,4-dihydropyridine-5-carboxylate] the same measures were 100 nM, 85%, 100 nM and 83%.
In assay [1], `CCCC1CC(=O)N(CCOC)C(C)=C1C(=O)OCc1ccccc1OC` (centres unmarked) [Example 121, (2-methoxyphenyl)methyl 1-(2-methoxyethyl)-6-methyl-2-oxo-4-propyl-3,4-dihydropyridine-5-carboxylate] showed an EC50 of 1100 nM and a hTGR5 % trans of 51%. For the same molecule, in assay [2], the half-maximal effective concentration (EC50) came to 1200 nM and the mTGR5 % trans was determined as 49%.
The corresponding values for `COCCN1C(=O)CC(c2ccc(-c3ccccc3)cc2)C(C(=O)OCc2ccccc2)=C1C` (centres unmarked) [Example 123, Benzyl 1-(2-methoxyethyl)-6-methyl-2-oxo-4-(4-phenylphenyl)-3,4-dihydropyridine-5-carboxylate] are 1400 nM, 17%, 2800 nM and 10%.
The corresponding values for `COCCN1C(=O)CC(c2ccc(C#N)cc2)C(C(=O)OCc2ccccc2OC)=C1C` (centres unmarked) [Example 125, (2-methoxyphenyl)methyl 4-(4-cyanophenyl)-1-(2-methoxyethyl)-6-methyl-2-oxo-3,4-dihydropyridine-5-carboxylate] are 200 nM, 86%, 200 nM and 100%.
`COCCN1C(=O)CC(c2ccc(Cl)c(Cl)c2)C(C(=O)OCc2ccccc2OC)=C1C` (centres unmarked) [Example 127, (2-methoxyphenyl)methyl 4-(3,4-dichlorophenyl)-1-(2-methoxyethyl)-6-methyl-2-oxo-3,4-dihydropyridine-5-carboxylate]: in assay [1], the response was half-maximal at 100 nM (EC50) and the hTGR5 % trans is given as 89%. Further, in assay [2], the EC50 is 100 nM and the mTGR5 % trans came out at 109%.
In assay [1], `COCCN1C(=O)CC(c2ccc(Cl)cc2Cl)C(C(=O)OCc2ccccc2OC)=C1C` (centres unmarked) [Example 129, (2-methoxyphenyl)methyl 4-(2,4-dichlorophenyl)-1-(2-methoxyethyl)-6-methyl-2-oxo-3,4-dihydropyridine-5-carboxylate] yielded an EC50 of 400 nM and a hTGR5 % trans of 89%. In assay [2], this molecule registered an EC50 of 900 nM and a mTGR5 % trans of 81%.
For `COCCN1C(=O)CC(c2ccncc2)C(C(=O)OCc2ccccc2OC)=C1C` (centres unmarked) [Example 133, (2-methoxyphenyl)methyl 1-(2-methoxyethyl)-6-methyl-2-oxo-4-(4-pyridyl)-3,4-dihydropyridine-5-carboxylate] the same measures were 8600 nM, 72%, 4900 nM and 83%.
For `COc1ccccc1[C@H](C)OC(=O)C1=C(C)N(C[C@H]2CCCO2)C(=O)C[C@H]1c1ccc(Cl)cc1` [Example 138, 1-(2-methoxyphenyl)ethyl (4S)-4-(4-chlorophenyl)-6-methyl-2-oxo-1-[[(2R)-tetrahydrofuran-2-yl]methyl]-3,4-dihydropyridine-5-carboxylate], in assay [1], the response was half-maximal at 380 nM (EC50) and the hTGR5 % trans is given as 70%. In assay [2], this molecule registered an EC50 of 1110 nM and a mTGR5 % trans of 36%.
